Source: patent US20090069424A1, “TGF-alpha expression inhibitors” (NIKKEN CHEMICALS CO., LTD., priority 2002, published 2009)

Assays:
[1] = tested on: TGF-α expression in non-tumor hepatic tissue; assay: TGF-α expression in non-tumor hepatic tissue of a rat after DEN administration, anti TGF-α immunohistological staining; assay type: in vivo; conditions: 80 mg/kg/day orally for 14 weeks from one week after 5-week DEN; control strongly positive; FIGS. 6 and 9
Procedure: Male Fischer rats (F344/N Slc, 6-week old) were used as an animal, and the rats were administered with a hepatic chemical carcinogen DEN for 5 weeks in a form of drinking water (concentration: 40 ppm), and then bred with normal drinking water for successive 15 weeks to induce hepatocellular carcinoma. NIK-333 was suspended in soybean oil, and a dose of 80 mg/kg was orally administered to each rat for 14 weeks (once/a day) from one week after the end of the administration of DEN. To a control group, soybean oil (5 mL/kg) was orally administered. After 20 weeks from the start of the administration of DEN, livers were extirpated under anesthesia. The livers were subjected to 10% formalin fixation and paraffin embedding, and further to immunological staining by using an anti TGF-α antibody. TGF-α expression levels were analyzed under microscope.
FIGS. 4 to 6 are photographs showing inhibitory effects on TGF-α expression in a non-tumor hepatic tissue, when the administration was ceased for one week after the 5-week treatment with DEN, and then 80 mg/kg/day of NIK-333 was administered for 14 weeks (immunohistological staining by using an anti TGF-α antibody). Similar observations were obtained in other animals which were analyzed at the same time.

[2] = tested on: hepatoma; conditions: clinical, cited from earlier work
[3] = tested on: TGF-α expression in oval cells; assay: TGF-α expression in oval cells in a rat induced by D-galactosamine hydrochloride, anti TGF-α immunohistological staining; assay type: in vivo; conditions: 200 mg/kg/day orally for four days; control strongly positive; FIG. 15
Procedure: Male SD rats (Crj/CD (SD), 6-week old) were used as an animal, and D-galactosamine hydrochloride (5 ml/kg) prepared as 200 mg/mL with physiological saline was intraperitoneally administered once to each rat to induce oval cells. NIK-333 was suspended in soybean oil, and a dose of 200 mg/kg was orally administered to each rat for 1 to 6 days. To the control group, soybean oil (2 mL/kg) was orally administered. From the next day to 7 days after the start of the administration, the livers were extirpated under anesthesia with passage of time. The livers were subjected to 10% formalin fixation and paraffin embedding, and further to immunological staining by using an anti TGF-α antibody. TGF-α expression levels were analyzed under microscope.
FIGS. 13 to 15 are photographs showing inhibitory effects on TGF-α expression in oval cells induced by the administration of D-galactosamine hydrochloride, when 200 mg/kg/day of NIK-333 was administered for four days (immunohistological staining using an anti TGF-α antibody). Similar observations were obtained in other animals which were analyzed at the same time.

[4] = tested on: TGF-α expression in oval cells; assay: Induction of TGF-α positive oval cells of a rat by 3′-MeDAB, anti TGF-α immunohistological staining of liver; assay type: in vivo
Procedure: Male Fischer rats (F344/N Slc, 6-week old) were used as an animal, and the rats were given with solid feed prepared to contain a hepatic chemical carcinogen 3′-MeDAB in a ratio of 0.06% for four weeks to induce oval cells. NIK-333 was suspended in soybean oil, and a dose of 80 mg/kg was orally administered to each rat for four weeks (once/a day) along with the administration of 3′-MeDAB. To a control group, soybean oil (5 mL/kg) was orally administered. After 4 weeks from the start of the administration of 3′-MeDAB, livers were extirpated under anesthesia. The livers were subjected to 10% formalin fixation and paraffin embedding, and further to immunological staining by using an anti TGF-α antibody. TGF-α expression levels were analyzed under microscope.
FIGS. 1 to 3 are photographs showing inhibitory effects on induction of TGF-α positive oval cells induced by the four-week administration of 3′-MeDAB, when 80 mg/kg/day of NIK-333 was simultaneously administered for four weeks (immunohistological staining by using the anti TGF-α antibody). Similar observations were obtained in other animals which were analyzed at the same time.

SMILES: CC(C)=CCC/C(C)=C/CC/C(C)=C/C=C/C(C)=C/C(=O)O [NIK-333, (2E,4E,6E,10E)-3,7,11,15-tetramethyl-2,4,6,10,14-hexadecapentaenoic acid]
- TGF-α observation in hepatic tissues surrounding the central vein, expressed by DEN [1]: almost negative
- side effect such as dysfunction of liver and those with other retinoids ([2]; during one-year administration): almost no side effect
- recurrence after radical cure of hepatoma ([2]; long-term administration for one year): significantly suppressed
- TGF-α observation of oval cells expressed by D-galactosamine hydrochloride [3]: weakly positive
- TGF-α observation of oval cells expressed with 3′-MeDAB ([4]; 80 mg/kg/day orally for four weeks along with 0.06% 3′-MeDAB feed, control strongly positive, FIG. 3): weakly positive
- number of oval cells with strongly positive TGF-α observation, expressed with 3′-MeDAB ([4]; 80 mg/kg/day orally for four weeks along with 3′-MeDAB, versus control, FIG. 12): reduced
